Test results as given in PubChem BioAssay AID2060886 (Molecular Pharmacology Branch, DTP, NCI, 2025).
pIC50: −log10 of the molar value. Where “and” joins values, the source holds several entries; their conditions need not be identical. Identical values can stand only once. Blank lines part the entries; values can stand above or below the compound they belong to.

Tested on: 653999-131-R-J2-PDC complex spheroids, growth inhibition
Assay: Anticancer human tumor 653999-131-R-J2-PDC patient-derived lung adenocarcinoma cell line growth inhibition [RAS]
Conditions: for pIC50: curve of first compound; for viability, T/C: stronger effect = lower value
Method in brief: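 Tumour cells grown as complex spheroids with HUVEC endothelial cells and mesenchymal stem cells, treated with RAS pathway inhibitor combinations. Each agent spans half-log steps from near clinical Cmax, or 10 microM where Cmax is unknown.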

[1] = second compound 0.00316 µM, first compound 0.00316 µM
[2] = second compound 0.00316 µM, first compound 0.01 µM
[3] = second compound 0.00316 µM, first compound 0.0316 µM
[4] = second compound 0.00316 µM, first compound 0.1 µM
[5] = second compound 0.00316 µM, first compound 0.316 µM
[6] = second compound 0.00316 µM, first compound 1 µM
[7] = second compound 0.01 µM, first compound 0.00316 µM
[8] = second compound 0.01 µM, first compound 0.01 µM
[9] = second compound 0.01 µM, first compound 0.0316 µM
[10] = second compound 0.01 µM, first compound 0.1 µM
[11] = second compound 0.01 µM, first compound 0.316 µM
[12] = second compound 0.01 µM, first compound 1 µM
[13] = second compound 0.0316 µM, first compound 0.00316 µM
[14] = second compound 0.0316 µM, first compound 0.01 µM
[15] = second compound 0.0316 µM, first compound 0.0316 µM
[16] = second compound 0.0316 µM, first compound 0.1 µM
[17] = second compound 0.0316 µM, first compound 0.316 µM
[18] = second compound 0.0316 µM, first compound 1 µM
[19] = second compound 0.1 µM, first compound 0.00316 µM
[20] = second compound 0.1 µM, first compound 0.01 µM
[21] = second compound 0.1 µM, first compound 0.0316 µM
[22] = second compound 0.1 µM, first compound 0.1 µM
[23] = second compound 0.1 µM, first compound 0.316 µM
[24] = second compound 0.1 µM, first compound 1 µM
[25] = second compound 0.316 µM, first compound 0.00316 µM
[26] = second compound 0.316 µM, first compound 0.01 µM
[27] = second compound 0.316 µM, first compound 0.0316 µM
[28] = second compound 0.316 µM, first compound 0.1 µM
[29] = second compound 0.316 µM, first compound 0.316 µM
[30] = second compound 0.316 µM, first compound 1 µM
[31] = second compound 1 µM, first compound 0.00316 µM
[32] = second compound 1 µM, first compound 0.01 µM
[33] = second compound 1 µM, first compound 0.0316 µM
[34] = second compound 1 µM, first compound 0.1 µM
[35] = second compound 1 µM, first compound 0.316 µM
[36] = second compound 1 µM, first compound 1 µM
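Note: spheroids exposed to the agents for seven days before the readout.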

SMILES: C=CC(=O)Nc1cc(Nc2nccc(-c3cn(C)c4ccccc34)n2)c(OC)cc1N(C)CCN(C)C + C=CC(=O)N1CCN(c2nc(OCC3CCCN3C)nc3c(F)c(-c4nc(N)cc(C)c4C(F)(F)F)c(Cl)cc23)C(C)C1
pIC50 (second compound 0.00316 µM): 6.08
pIC50 (second compound 0.01 µM): < 6.00
pIC50 (second compound 0.0316 µM): < 6.00
pIC50 (second compound 0.1 µM): < 6.00
pIC50 (second compound 0.316 µM): 6.05
pIC50 (second compound 1 µM): < 6.00
viability, T/C [1]: 104%
viability, T/C [2]: 90.8%
viability, T/C [3]: 95.3%
viability, T/C [4]: 94.9%
viability, T/C [5]: 70.3%
viability, T/C [6]: 46.3%
viability, T/C [7]: 94.1%
viability, T/C [8]: 83.7%
viability, T/C [9]: 79.5%
viability, T/C [10]: 100%
viability, T/C [11]: 57.9%
viability, T/C [12]: 56%
viability, T/C [13]: 113%
viability, T/C [14]: 100%
viability, T/C [15]: 95.3%
viability, T/C [16]: 69.6%
viability, T/C [17]: 59.2%
viability, T/C [18]: 59.4%
viability, T/C [19]: 108%
viability, T/C [20]: 86.8%
viability, T/C [21]: 89.5%
viability, T/C [22]: 77.5%
viability, T/C [23]: 69.6%
viability, T/C [24]: 52.7%
viability, T/C [25]: 100%
viability, T/C [26]: 107%
viability, T/C [27]: 98.8%
viability, T/C [28]: 70.8%
viability, T/C [29]: 67.7%
viability, T/C [30]: 46%
viability, T/C [31]: 105%
viability, T/C [32]: 104%
viability, T/C [33]: 94.2%
viability, T/C [34]: 67%
viability, T/C [35]: 58.6%
viability, T/C [36]: 55.9%

SMILES: Nc1ccn(C2OC(CO)C(O)C2(F)F)c(=O)n1 (stereo not given)
viability, T/C (compound 0.00316 µM): 90.2% [middle of 4 runs]
viability, T/C (compound 0.01 µM): 76.4% [middle of 4 runs]
viability, T/C (compound 0.0316 µM): 62.9% [middle of 4 runs]
viability, T/C (compound 0.1 µM): 51.2% [middle of 4 runs]
viability, T/C (compound 0.316 µM): 43.1% [middle of 4 runs]
viability, T/C (compound 1 µM): 34.1% and 30.3% (2×) and 33.9%
IC50 (curve of compound): 99.5 nM [middle of 4 runs]

SMILES: CCc1c2c(nc3ccc(O)cc13)-c1cc3c(c(=O)n1C2)COC(=O)[C@]3(O)CC + C=CC(=O)N1CCN(c2nc(OCC3CCCN3C)nc3c(F)c(-c4nc(N)cc(C)c4C(F)(F)F)c(Cl)cc23)C(C)C1
pIC50 (second compound 0.00316 µM): 8.07
pIC50 (second compound 0.01 µM): 8.19
pIC50 (second compound 0.0316 µM): 8.19
pIC50 (second compound 0.1 µM): 8.23
pIC50 (second compound 0.316 µM): 8.23
pIC50 (second compound 1 µM): 8.07
viability, T/C (second compound 0.00316 µM, first compound 0.000949 µM): 80.2%
viability, T/C (second compound 0.00316 µM, first compound 0.003 µM): 58.5%
viability, T/C (second compound 0.00316 µM, first compound 0.00949 µM): 53.5%
viability, T/C (second compound 0.00316 µM, first compound 0.03 µM): 34.3%
viability, T/C (second compound 0.00316 µM, first compound 0.0949 µM): 20.8%
viability, T/C (second compound 0.00316 µM, first compound 0.3 µM): 10.2%
viability, T/C (second compound 0.01 µM, first compound 0.000949 µM): 88.7%
viability, T/C (second compound 0.01 µM, first compound 0.003 µM): 61.9%
viability, T/C (second compound 0.01 µM, first compound 0.00949 µM): 44.2%
viability, T/C (second compound 0.01 µM, first compound 0.03 µM): 29%
viability, T/C (second compound 0.01 µM, first compound 0.0949 µM): 21.5%
viability, T/C (second compound 0.01 µM, first compound 0.3 µM): 11.3%
viability, T/C (second compound 0.0316 µM, first compound 0.000949 µM): 90.9%
viability, T/C (second compound 0.0316 µM, first compound 0.003 µM): 60.8%
viability, T/C (second compound 0.0316 µM, first compound 0.00949 µM): 43.8%
viability, T/C (second compound 0.0316 µM, first compound 0.03 µM): 30.4%
viability, T/C (second compound 0.0316 µM, first compound 0.0949 µM): 20.6%
viability, T/C (second compound 0.0316 µM, first compound 0.3 µM): 11.6%
viability, T/C (second compound 0.1 µM, first compound 0.000949 µM): 85.8%
viability, T/C (second compound 0.1 µM, first compound 0.003 µM): 58.3%
viability, T/C (second compound 0.1 µM, first compound 0.00949 µM): 43.1%
viability, T/C (second compound 0.1 µM, first compound 0.03 µM): 30.2%
viability, T/C (second compound 0.1 µM, first compound 0.0949 µM): 23.7%
viability, T/C (second compound 0.1 µM, first compound 0.3 µM): 12.1%
viability, T/C (second compound 0.316 µM, first compound 0.000949 µM): 83.9%
viability, T/C (second compound 0.316 µM, first compound 0.003 µM): 59.7%
viability, T/C (second compound 0.316 µM, first compound 0.00949 µM): 42.5%
viability, T/C (second compound 0.316 µM, first compound 0.03 µM): 29.5%
viability, T/C (second compound 0.316 µM, first compound 0.0949 µM): 23%
viability, T/C (second compound 0.316 µM, first compound 0.3 µM): 11.9%
viability, T/C (second compound 1 µM, first compound 0.000949 µM): 84.5%
viability, T/C (second compound 1 µM, first compound 0.003 µM): 64.2%
viability, T/C (second compound 1 µM, first compound 0.00949 µM): 50.7%
viability, T/C (second compound 1 µM, first compound 0.03 µM): 31.2%
viability, T/C (second compound 1 µM, first compound 0.0949 µM): 25.3%
viability, T/C (second compound 1 µM, first compound 0.3 µM): 14.5%

Further lines, with some results ahead:

pIC50 (second compound 0.00316 µM): < 6.00
pIC50 (second compound 0.01 µM): < 6.00
pIC50 (second compound 0.0316 µM): < 6.00
pIC50 (second compound 0.1 µM): < 6.00
pIC50 (second compound 0.316 µM): < 6.00
pIC50 (second compound 1 µM): < 6.00
SMILES: CCN1CCN(Cc2ccc(Nc3ncc(F)c(-c4cc(F)c5nc(C)n(C(C)C)c5c4)n3)nc2)CC1 + C=CC(=O)N1CCN(c2nc(OCC3CCCN3C)nc3c(F)c(-c4nc(N)cc(C)c4C(F)(F)F)c(Cl)cc23)C(C)C1
viability, T/C [1]: 90.4%
viability, T/C [2]: 79.5%
viability, T/C [3]: 68.9%
viability, T/C [4]: 61.7%
viability, T/C [5]: 80%
viability, T/C [6]: 75.4%
viability, T/C [7]: 93.4%
viability, T/C [8]: 84.1%
viability, T/C [9]: 69.3%
viability, T/C [10]: 66.9%
viability, T/C [11]: 67.7%
viability, T/C [12]: 69.7%
viability, T/C [13]: 106%
viability, T/C [14]: 87.1%
viability, T/C [15]: 75.8%
viability, T/C [16]: 65.3%
viability, T/C [17]: 68.1%
viability, T/C [18]: 81.7%
viability, T/C [19]: 111%
viability, T/C [20]: 84%
viability, T/C [21]: 67.6%
viability, T/C [22]: 73.7%
viability, T/C [23]: 63%
viability, T/C [24]: 67.1%
viability, T/C [25]: 84.8%
viability, T/C [26]: 98.6%
viability, T/C [27]: 78.2%
viability, T/C [28]: 69.4%
viability, T/C [29]: 70.7%
viability, T/C [30]: 70.5%
viability, T/C [31]: 94%
viability, T/C [32]: 81.3%
viability, T/C [33]: 63.4%
viability, T/C [34]: 69.7%
viability, T/C [35]: 77.6%
viability, T/C [36]: 102%

IC50 (compound alone, run of 09/09/2024): 1.88 µM [middle of 8 runs]
SMILES: C#Cc1c(F)ccc2cc(O)cc(-c3ncc4c(N5CC6CCC(C5)N6)nc(OCC56CCCN5CC(F)C6)nc4c3F)c12 (stereo not given)
viability, T/C (compound 0.0316 µM): 99% [middle of 8 runs]
viability, T/C (compound 0.1 µM): 89.6% [middle of 8 runs]
viability, T/C (compound 0.316 µM): 71.2% [middle of 8 runs]
viability, T/C (compound 1 µM): 58.1% [middle of 8 runs]
viability, T/C (compound 3.16 µM): 43.8% [middle of 8 runs]
viability, T/C (compound 10 µM): 31.8% [middle of 8 runs]
